Our source for the inhibition values is patent publication US6509329B1, “Cyclic diamine compound with 6-membered ring groups” (Kowa Co., Ltd., priority 2001, dated 2003).

Read-outs that look alike come from different tables or passages of the source.

For this test, the system named is adhesion of U937 cells to HUVEC stimulated by IL-1β or TNFα. Nature of the test: Inhibitory effect on cell adhesion (U937 adhesion to stimulated HUVEC). The test is classed as cell-based. As to conditions: Homo sapiens, compound at 1 μM, fluorescence-labeled U937 adhesion for 1 hour. As for the experimental part: This test was conducted by reference to the method of Ross et al. (J. Biol. Chem., 267, 8537-8543 (1992)). More specifically, after human umbilical venous endothelial cells (HUVEC) were cultured on a 48-well plate to confluent growth, IL−1β or TNFα was added thereto. Upon elapsed time of 5 hours after the addition, U937, which is a human monocytic/histocytic cell fluorescence-labeled with PKH2 (product of Dainippon Pharmaceutical Co., Ltd.), was added in a proportion of 1×10^6 cells per well. After the plate was left at rest at room temperature for 1 hour, unadhered U937 was washed out and lysed in 1% Triton X-100 to measure a remaining fluorescence intensity (excitation wavelength: 480 nm; measuring wavelength: 530 nm). HUVEC and U937 were cultured in EGM-2 (product of Sanko Junyaku K.K.) and 10% FCS-containing RPMI1640, respectively. Each test agent was added to HUVEC upon the addition of IL-1β or TNFα and to U937 24 hours prior to the cell adhesion test. The inhibitory activity was calculated out according to the equation [100−(C−B)/(A−B)×100 (%)], wherein A is the number of U937 cells adhered to HUVEC stimulated by IL−1β or TNFα when no test agent was added, B is the number of U937 cells adhered to HUVEC not stimulated by IL-1β or TNFα when no test agent was added, and C is the number of U937 cells adhered to HUVEC stimulated by ILβ or TNFα when the test agent was added. As control compounds, Test Compound 1 described in Japanese Patent Application Laid-Open No. 9-143075 and dilazep described in Japanese Patent Application Laid-Open No. 11-92382 were simultaneously evaluated.

[1] abbreviates: HUVEC stimulated by IL-1β for 5 hours, read-out: Percent inhibition (%) of cell adhesion, Stimulation by IL-1β.
The mark [2] stands for this setting: HUVEC stimulated by TNFα for 5 hours, read-out: Percent inhibition (%) of cell adhesion, Stimulation by TNFα.

In the case of `COc1cc(-c2cc(CN3CCN(Cc4ccnc(-c5cc(OC)c(OC)c(OC)c5)c4)CC3)ccn2)cc(OC)c1OC` [Example 9, N,N′-bis[[2-(3,4,5-Trimethoxyphenyl)pyridin-4-yl]methyl]piperazine], the inhibition at 1 µM by setting is: under setting [1], 53%; under setting [2], 64%.

Regarding `COc1cc(-c2cccc(CN3CCCN(Cc4cccc(-c5cc(OC)c(OC)c(OC)c5)c4)CC3)c2)cc(OC)c1OC` [Example 4, N,N′-bis[3-(3,4,5-Trimethoxyphenyl)benzyl]-homopiperazine], the inhibition at 1 µM by setting is: under setting [1], 42%; under setting [2], 43%.

Take `COc1cc(C#Cc2cc(CN3CCN(Cc4ccnc(C#Cc5cc(OC)c(OC)c(OC)c5)c4)CC3)ccn2)cc(OC)c1OC` [Example 22, N,N′-bis[[2-(3,4,5-Trimethoxyphenylethynyl)-pyridin-4-yl]methyl]piperazine]: the inhibition at 1 µM under setting [1] stood at 34% and the inhibition at 1 µM under setting [2] is 50%.

On to `COc1cc(-c2cc(CN3CCCN(Cc4ccnc(-c5cc(OC)c(OC)c(OC)c5)c4)CC3)ccn2)cc(OC)c1OC` [Example 10, N,N′-bis[[2-(3,4,5-Trimethoxyphenyl)pyridin-4-yl]methyl]homopiperazine], for which the inhibition at 1 µM under setting [1] is 63% and the inhibition at 1 µM under setting [2] is 71%.

Consider `COc1cc(C(=O)OCCCN2CCCN(CCCOC(=O)c3cc(OC)c(OC)c(OC)c3)CC2)cc(OC)c1OC` [Dilazep, dilazep, reference compound], for which the inhibition at 1 µM runs as follows: under setting [1], 0%; under setting [2], 12%.

In general, inhibition refers to the share of the control response that was lost under treatment.
